From patent US20210391038A1, “SPECIFICALLY-SHAPED CRYSTAL OF COMPOUND AND METHOD FOR PRODUCING SAME” (TOWA PHARMACEUTICAL CO., LTD., priority 2018, published 2021)
Structures can show the parent of a compound that is named as a salt.

Key:
Type in all cases: physicochemical
[1] = Sphericity from SEM images (ImageJ); set-up: key: 1 = true sphere; closer to 1 = more spherical; mean of ≥5 particles; settings: SEM image analysis, mean of particles
Source text: In the present description, “spherulite” means a crystal aggregate (polycrystal) which has a radial or concentric thin layered structure and has a spherical outer shape. Whether the crystal obtained by the method of the present invention is a spherulite or not can be determined, for example, by observing the outer shape of the crystal using SEM. For example, it can be discriminated by cutting the crystal aggregate and observing the internal structure thereof using SEM. The sphericity of the spherulite obtained by the method of the present invention is usually 0.60 or more, preferably 0.70 or more, more preferably 0.80 or more, particularly preferably 0.90 or more, and most preferably 0.95 or more. The sphericity can be calculated by the following method.
When an image of particles taken by SEM is analyzed using image processing software ImageJ, a coordinate group representing the position of pixels forming the outline of a particle is obtained. The length of the coordinate group is defined as N, and one pixel coordinate of each outline is defined as p[i] (1≤i≤N). The angle between a straight line l(k) connecting two points p[k] and p[k+N/D] and a straight line m(k) connecting two points p[k+N/D] and p[k+2N/D] is defined as θ(k) (−180°<θ<180°) (1≤k≤N, 1≤D≤N). D corresponds to the number of partitions of the outline. When N/D is not a natural number, the value is defined as the quotient obtained by dividing N by D. By calculating this angle with k=1 to N, N pieces of θ value can be obtained.
When the particle is a true sphere, θ(k) is 360/D, and the closer the particle is to a true sphere, the closer θ(k) is to this value. The error between θ(k) and the true value 360/D is evaluated by the root-mean-square error (RMSE) of the following formula:
Using the RMSE value of when D is 10 (θ(k)=36°), the sphericity is defined by the following formula: […]
The sphericity is 1 in a true sphere, and the closer the particle is to a true sphere, the closer the sphericity is to 1. Meanwhile, the sphericity of an ellipse whose long axis is infinitely long is zero. The sphericity is measured for five or more particles to calculate the mean. This mean is defined as the sphericity of each sample (see FIGS. 42 and 43).

[2] = Particle size from SEM images (equivalent circle diameter, mean particle size, crystal size); settings: for equivalent circle diameter: SEM image, ImageJ, trihydrate
Description: “Equivalent circle diameter” in the present description is a diameter of a perfect circle corresponding to the area of individual particles in an image of particles taken by SEM, and is calculated from randomly selected 5 to 800 particles using image processing software ImageJ. The equivalent circle diameter of a spherulite obtained by the method of the present invention is preferably 25 μm or more, 30 μm or more, 35 μm or more, 40 μm or more, 45 μm or more, or 50 μm or more and 100 μm or less, 120 μm or less, 150 μm or less, 200 μm or less, 250 μm or less, 300 μm or less, 500 μm or less, or 1,000 μm or less. More preferably, the equivalent circle diameter is 25 to 500 μm or 30 to 300 μm.
The particle size distribution was measured in a dry manner using a spray particle size distribution analyzer AEROTRAC LDSA-SPR3500A manufactured by Microtrac Inc. The particle size distribution in Examples 2 and 7 was measured in a dry manner using a laser diffraction particle size distribution measurement MASTERSIZER 3000 manufactured by Malvern Panalytical Ltd. SEM images were measured using a scanning electron microscope JSM-IT100 manufactured by JEOL Ltd. Light microscope images were measured using an upright microscope BX53M manufactured by Olympus Corporation and a microscope digital camera DP74 manufactured by Olympus Corporation. Images for measuring the number of particles were obtained by a scanner GT-X830 manufactured by SEIKO EPSON CORPORATION. The powder X-ray diffraction (XRD) was measured using a desktop X-ray diffraction device MiniFlex300 manufactured by Rigaku Corporation. The specific surface area was measured by the BET fluid process (gas used: pure nitrogen) using a fully automatic specific surface area measuring device Macsorb HM-1208 manufactured by Mountech Co., Ltd. The moisture content was measured using a trace moisture measuring device AQ-2200 manufactured by […] SANGYO Co., Ltd. The dissolution profile was measured using μDISS Profiler manufactured by Pion Inc. Centrifugal classification was performed using a high-efficiency precision forced air classifier Lab Calssiel N-01 manufactured by SEISHIN […] Co., Ltd. Image analysis was performed using image processing software ImageJ developed by the National Institute of Health (NIH). The particle strength was measured using a particle hardness measuring device NEW GRANO manufactured by OKADA SEIKO CO., LTD. The true density was measured using a dry automatic densimeter AccuPyc II 1340-10CC manufactured by Shimadzu Corporation. The purity of a compound was measured by a high performance liquid chromatograph (LC-20A) manufactured by Shimadzu Corporation.
The spherulite of azithromycin monohydrate produced in Example 12 was cut, and the section was observed by SEM (FIG. 4). The crystal size at the outer edge was 5 to 10 μm, while the crystal size at the center was 0.2 to 1 μm.

[3] = Measurement of critical degree of supersaturation of spherulite; settings: entry 19; solvent 1 EtOH, solvent 2 H2O, solvent 2/solvent 1 ratio 1; crystallization 35 °C
Source text: “Supersaturated solution” in the present description means a solution in a state of containing a solute exceeding the solubility. As the degree of supersaturation, “degree of supersaturation” can be used. Regarding the degree of supersaturation, when the concentration (mass concentration (g/g)) of a compound dissolved in a supersaturated solution is defined as C and the solubility of the compound is defined as Cs, the degree of supersaturation S can be represented by the following formula: […]
“Critical degree of supersaturation” in the present description means the lowest degree of supersaturation required to obtain a specifically-shaped crystal. […] The value of a critical degree of supersaturation varies depending on the shape of a crystal. For example, all of values of a critical degree of supersaturation required to obtain a plate crystal, a critical degree of supersaturation required to obtain a needle crystal, and a critical degree of supersaturation required to obtain a spherulite are different. The critical degree of supersaturation required to obtain a spherulite is higher than the critical degree of supersaturation required to obtain a plate crystal or a needle crystal.
The actual measured value of the critical degree of supersaturation (S*) can be measured as follows:
(1) 100 particles are observed by SEM. (2) 5 to 10 particles whose shape is close to a desired specific shape are selected, and the shape is evaluated. In particular, when the desired specific shape is a sphere, the sphericity is evaluated. (3) Based on the evaluation index of the shape, whether the selected particles have the desired specific shape or not is determined. In particular, when the desired specific shape is a sphere, the case where the sphericity is 0.60 or more is determined as a spherulite. (4) The above-mentioned operation is performed for each sample having a different degree of supersaturation during crystallization, and the minimum value of a degree of supersaturation having the specifically-shaped particles is determined as the critical degree of supersaturation. The difference between the maximum value of a degree of supersaturation not having the specifically-shaped particles and the critical degree of supersaturation should be 20% or less.
The critical degree of supersaturation of a spherulite of ketotifen fumarate was determined as follows. To 2.0 g of ketotifen fumarate, 10 mL (5 v/w) of methanol was added, followed by reflux to completely dissolve. This solution was added dropwise to 50 mL of isopropanol at 20° C. to prepare a supersaturated solution of ketotifen fumarate. The degree of supersaturation of the supersaturated solution at the end of dropwise addition was 9.0. The supersaturated solution was crystallized. The crystal was collected by filtration, followed by drying under reduced pressure at 40° C., thus obtaining a crystal of ketotifen fumarate.
Similarly, when a substrate and a solvent different from those mentioned above are used, a plurality of samples having a different degree of supersaturation are prepared and crystallized, and then the critical degree of supersaturation of the spherulite was measured.

[4] = Particle density, true density and particle packing rate
Description: “Particle density” in the present description is mass per unit volume when the volume of the substance itself as well as the volume of the open void and the closed void are included as the volume of polycrystalline particles. For example, when the polycrystalline particles are spherical particles, the particle density is calculated by the following formula using the mean mass of the polycrystalline particles and the mean volume of the polycrystalline particles:
Here, the mean mass of polycrystalline particles is calculated by measuring the number of polycrystalline particles contained in 1.0 mg or more, preferably 5.0 mg or more, and more preferably 10.0 mg or more of a sample by a scanner, etc. The mean volume of crystal particles is obtained by averaging the volume calculated by photographing 500 or more, preferably 1,000 or more, and more preferably 5,000 or more crystal particles by a light microscope, etc., using an equivalent circle diameter obtained from the projected area of polycrystalline particles, and assuming that the polycrystalline particles are true spheres. At this time, it is desirable that the distribution of the equivalent circle diameter is unimodal and the sharpness value is less than 1.5.
“Particle packing rate” of a polycrystal in the present description is a value calculated by the following formula:
Particle packing rate (%)=(particle density)/(true density of compound)×100 [Equation 8]
Here, “true density of compound” is a density of a substance itself not including a void. If no void exists at all inside or on the surface of a particle, the particle packing rate is 100%. The true density of a compound can be obtained by dry density measurement by the constant volume expansion method. Examples of the measuring device include a dry automatic densimeter AccuPyc II 1340-10CC manufactured by Shimadzu Corporation.
The particle size distribution was measured in a dry manner using a spray particle size distribution analyzer AEROTRAC LDSA-SPR3500A manufactured by Microtrac Inc. The particle size distribution in Examples 2 and 7 was measured in a dry manner using a laser diffraction particle size distribution measurement MASTERSIZER 3000 manufactured by Malvern Panalytical Ltd. SEM images were measured using a scanning electron microscope JSM-IT100 manufactured by JEOL Ltd. Light microscope images were measured using an upright microscope BX53M manufactured by Olympus Corporation and a microscope digital camera DP74 manufactured by Olympus Corporation. Images for measuring the number of particles were obtained by a scanner GT-X830 manufactured by SEIKO EPSON CORPORATION. The powder X-ray diffraction (XRD) was measured using a desktop X-ray diffraction device MiniFlex300 manufactured by Rigaku Corporation. The specific surface area was measured by the BET fluid process (gas used: pure nitrogen) using a fully automatic specific surface area measuring device Macsorb HM-1208 manufactured by Mountech Co., Ltd. The moisture content was measured using a trace moisture measuring device AQ-2200 manufactured by […] SANGYO Co., Ltd. The dissolution profile was measured using μDISS Profiler manufactured by Pion Inc. Centrifugal classification was performed using a high-efficiency precision forced air classifier Lab Calssiel N-01 manufactured by SEISHIN […] Co., Ltd. Image analysis was performed using image processing software ImageJ developed by the National Institute of Health (NIH). The particle strength was measured using a particle hardness measuring device NEW GRANO manufactured by OKADA SEIKO CO., LTD. The true density was measured using a dry automatic densimeter AccuPyc II 1340-10CC manufactured by Shimadzu Corporation. The purity of a compound was measured by a high performance liquid chromatograph (LC-20A) manufactured by Shimadzu Corporation. […]

Structure (SMILES): COc1cccc(C2(O)CCCCC2CN(C)C)c1 (stereo not drawn) [Example 29, tramadol hydrochloride]
- sphericity of the spherulite [1]: 0.90±0.08
- mean particle size [2]: 319 μm

Structure (SMILES): COc1ccc2[n-]c([S@@+]([O-])Cc3ncc(C)c(OC)c3C)nc2c1.COc1ccc2[n-]c([S@@+]([O-])Cc3ncc(C)c(OC)c3C)nc2c1.O.O.O.[Mg+2] [Example 3, esomeprazole magnesium trihydrate]
- sphericity of the spherulite ([1]; trihydrate): 0.97±0.01
- equivalent circle diameter [2]: 58±7 μm

Structure (SMILES): COc1ccc2[n-]c([S@@+]([O-])Cc3ncc(C)c(OC)c3C)nc2c1.COc1ccc2[n-]c([S@@+]([O-])Cc3ncc(C)c(OC)c3C)nc2c1.O.O.O.[Mg+2] [Esomeprazole magnesium trihydrate]
- Critical degree of supersaturation S Experimental value [3]: 1.6
- true density [4]: 1.37 g/mL

Structure (SMILES): COc1ccc2[n-]c([S@@+]([O-])Cc3ncc(C)c(OC)c3C)nc2c1.COc1ccc2[n-]c([S@@+]([O-])Cc3ncc(C)c(OC)c3C)nc2c1.O.O.O.[Mg+2] [Example 4, esomeprazole magnesium trihydrate]
- sphericity of the spherulite ([1]; trihydrate): 0.93±0.02
- equivalent circle diameter [2]: 183±8 μm

Structure (SMILES): Cc1ccccc1C(=O)Nc1ccc(C(=O)N2CCCC(O)c3cc(Cl)ccc32)c(C)c1 (stereo not drawn) [Example 28, tolvaptan]
- sphericity of the spherulite [1]: 0.94±0.02
- mean particle size [2]: 145 μm

Structure (SMILES): CN(C)CC/C=C1/c2ccccc2COc2ccc(CC(=O)O)cc21 [Example 31, olopatadine]
- sphericity of the spherulite [1]: 0.96±0.02
- mean particle size [2]: 167 μm
